Active and inactive are the calls of the source. The rule behind the calls is not given here.
Key:
Chikungunya virus [1] = experiment: (§1) Antiviral activity against CHIKV infected in human NHDF cells assessed as reduction in virus titer in cell supernatant by measuring inhibition of plaque formation using Vero cells pretreated with NHDF cells followed by infected with virus incubated for 24 hrs and measured following infection of supernatants with Vero cells for 48 hrs by plaque based methylene blue dye analysis; assay type: functional, organism-based
[2] = Cytotoxicity against HEK293 cells at 10 uM; assay type: cell-based; conditions: human
Chikungunya virus [3] = experiment: as §1, with “Vero cells at 10 uM pretreated with” for “Vero cells pretreated with”; assay type: functional; conditions: time 72 hrs
[4] = Cytotoxicity against human NHDF cells assessed as cell viability measured after 24 hrs by Cell Titer Glo luminescent assay; assay type: cell-based; conditions: NHDF cells
[5] = Octanol-aqueous buffer distribution coefficient, log D of the compound by LC-MS analysis; assay type: physicochemical
Mayaro virus = experiment: (§2) Antiviral activity against Mayaro virus TRVL infected in Asian tiger mosquito C6/36 cells assessed as reduction in virus titer in cell supernatant by measuring inhibition of plaque formation using Vero cells and measured following infection of supernatants with Vero cells for 48 hrs pi by serial dilution plaque based methylene blue dye analysis; assay type: functional
[6] = Half life in C57BL/6 mouse at 40 mg/kg, ip; assay type: ADME, organism-based; conditions: in vivo
Chikungunya virus [7] = experiment: Antiviral activity against CHIKV-nLuc RNA transfected NHDF cells assessed as decrease in Nano-luc signal at 20 uM pretreated 24 hrs before transfection in presence of guanosine measured after 24 hrs by Nano-Glo luciferase assay; assay type: functional, organism-based
Chikungunya virus [8] = experiment: Antiviral activity against CHIKV infected in C57BL/6 mouse right foot assessed as reduction in site of infection at 80 mg/kg, po pretreated 2 hrs before infection followed treated twice a day for 3 days and measured 12 hr post infection of last dose by dilution plaque assay on Vero cells; assay type: functional, organism-based; conditions: time 86.0 hrs
[9] = target: Dihydroorotate dehydrogenase (quinone), mitochondrial (Homo sapiens, UniProt Q02127)
Dihydroorotate dehydrogenase (quinone), mitochondrial, sequence (Q02127 whole entry): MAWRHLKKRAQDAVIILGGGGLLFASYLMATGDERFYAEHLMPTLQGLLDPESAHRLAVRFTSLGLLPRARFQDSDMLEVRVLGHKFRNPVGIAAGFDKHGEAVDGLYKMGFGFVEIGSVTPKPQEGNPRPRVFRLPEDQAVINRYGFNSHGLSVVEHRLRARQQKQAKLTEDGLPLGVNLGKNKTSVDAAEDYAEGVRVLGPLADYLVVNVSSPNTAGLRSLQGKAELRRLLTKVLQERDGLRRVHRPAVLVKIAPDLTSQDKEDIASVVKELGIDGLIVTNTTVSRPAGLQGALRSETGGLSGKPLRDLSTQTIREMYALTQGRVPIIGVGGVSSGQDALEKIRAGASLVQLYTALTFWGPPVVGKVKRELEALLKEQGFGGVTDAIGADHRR

[10] = AUC in C57BL/6 mouse at 40 mg/kg, sc; assay type: ADME, organism-based; design: dose 40 mg/kg; conditions: in vivo
Chikungunya virus [11] = experiment: Antiviral activity against CHIKV infected in C57BL/6 mouse right foot assessed as reduction in spleen at 80 mg/kg, po pretreated 2 hrs before infection followed treated twice a day for 3 days and measured 12 hr post infection of last dose by dilution plaque assay on Vero cells; assay type: functional, organism-based; conditions: time 86.0 hrs
[12] = Cmax in C57BL/6 mouse at 40 mg/kg, ip; assay type: ADME, organism-based; design: route intraperitoneal, dose 40 mg/kg; conditions: in vivo
[13] = Half life in C57BL/6 mouse at 40 mg/kg, sc; assay type: ADME, organism-based; conditions: in vivo
Chikungunya virus [14] = experiment: (§3) Antiviral activity against CHIKV infected in C57BL/6 mouse right foot assessed as reduction in serum of ipsilateral tissue at 80 mg/kg, po pretreated 2 hrs before infection followed treated twice a day for 3 days and measured 12 hr post infection of last dose by dilution plaque assay on Vero cells; assay type: functional, organism-based; conditions: time 86.0 hrs
Onyong-nyong virus = experiment: as §2, with “O'nyong-nyong” for “Mayaro”, “virus” for “virus TRVL”; assay type: functional
[15] = AUC in C57BL/6 mouse at 1 mg/kg, iv; assay type: ADME, organism-based; design: dose 1 mg/kg; conditions: in vivo
[16] = Bioavailability in C57BL/6 mouse at 40 mg/kg, ip; assay type: ADME, organism-based; conditions: in vivo
[17] = test system: Venezuelan equine encephalitis virus; experiment: as §2, with “Venezuelan equine encephalitis” for “Mayaro”, “TC83” for “TRVL”, “human […]” for “Asian tiger mosquito C6/36”, “at 10 uM” for “and”; assay type: functional, NHDF
[18] = AUC in C57BL/6 mouse at 40 mg/kg, po; assay type: ADME, organism-based; design: dose 40 mg/kg; conditions: in vivo
Una virus = experiment: as §2, with “Una” for “Mayaro”, “MAC150” for “TRVL”; assay type: functional
West Nile virus = experiment: as §2, with “West nile” for “Mayaro”, “virus” for “virus TRVL”, “HEK293” for “Asian tiger mosquito C6/36”, “at 10 uM” for “and”; assay type: functional
[19] = Cmax in C57BL/6 mouse at 40 mg/kg, sc; assay type: ADME, organism-based; design: route subcutaneous, dose 40 mg/kg; conditions: in vivo
[20] = Aqueous solubility of the compound; assay type: physicochemical; conditions: aqueous; read-out: solubility
Chikungunya virus [21] = experiment: Antiviral activity against CHIKV infected in C57BL/6 mouse right foot assessed as reduction in quadriceps tissue at 80 mg/kg, po pretreated 2 hrs before infection followed treated twice a day for 3 days and measured 12 hr post infection of last dose by dilution plaque assay on Vero cells; assay type: functional, organism-based; conditions: time 86.0 hrs
[22] = AUC in C57BL/6 mouse at 40 mg/kg, ip; assay type: ADME, organism-based; design: dose 40 mg/kg; conditions: in vivo
Chikungunya virus [23] = experiment: Antiviral activity against CHIKV-nLuc RNA transfected NHDF cells assessed as decrease in Nano-luc signal at 20 uM pretreated 24 hrs before transfection in presence of uridine measured after 24 hrs by Nano-Glo luciferase assay; assay type: functional, organism-based; conditions: time 48.0 hrs
Chikungunya virus [24] = experiment: as §2, with “CHIKV 99659” for “Mayaro virus TRVL”; assay type: functional; conditions: Chikungunya virus, 99659, C6
dengue virus type 2 = experiment: as §2, with “DENV2” for “Mayaro virus TRVL”, “HEK293” for “Asian tiger mosquito C6/36”, “at 10 uM” for “and”; assay type: functional
[25] = Half life in C57BL/6 mouse at 40 mg/kg, po; assay type: ADME, organism-based; conditions: in vivo
Chikungunya virus [26] = assay type: functional; conditions: 181-25, C6, time 48 hrs
[27] = Bioavailability in C57BL/6 mouse at 40 mg/kg, sc; assay type: ADME, organism-based; conditions: in vivo
[28] = Cmax in C57BL/6 mouse at 40 mg/kg, po; assay type: ADME, organism-based; design: route oral, dose 40 mg/kg; conditions: in vivo
[29] = Toxicity in CHIKV infected in C57BL/6 mouse right foot assessed as body weight change at 80 mg/kg, po pretreated 2 hrs before infection followed treated twice a day for 3 days and measured 12 hr post infection of last dose; assay type: organism-based; conditions: in vivo, 86 h
[30] = Metabolic stability in human liver microsomes assessed as half life in presence of NADPH incubated up to 45 mins by LC-MS/MS analysis; assay type: ADME, Microsome
[31] = Half life in C57BL/6 mouse at 1 mg/kg, iv; assay type: ADME, organism-based; conditions: in vivo
Chikungunya virus [32] = experiment: as §2, with “CHIKV 37997” for “Mayaro virus TRVL”; assay type: functional; conditions: Chikungunya virus, 37997, C6
[33] = as §2, with “Ross river” for “Mayaro”, “virus” for “virus TRVL”; assay type: functional; conditions: La Crosse virus
[34] = test system: Venezuelan equine encephalitis virus; experiment: as §2, with “Venezuelan equine encephalitis” for “Mayaro”, “TC83” for “TRVL”; assay type: functional
[35] = Oral bioavailability in C57BL/6 mouse at 40 mg/kg; assay type: ADME, organism-based; conditions: in vivo
Chikungunya virus [36] = experiment: as §3, with “contralateral ankles” for “ipsilateral”; assay type: functional, organism-based; conditions: time 86.0 hrs

CC(C)(C)c1ccc(NC(=O)c2ccc3c(c2)CCCCC3)cc1
EC50 (Chikungunya virus [1]): 7 µM | CC50 [2]: > 30 µM | log(activity) (Chikungunya virus [3]): 4.2 | CC50 at 24 h [4]: > 30 µM

COc1cc2c(cc1C(=O)Nc1ccc(C(C)(C)C#N)cc1)CCCCC2
logD [5]: > 4.4 | EC90 (Mayaro virus): 2.3 µM | half-life [6]: 18.5 h | Activity (Chikungunya virus [7]): Active | Activity (Chikungunya virus [8]): inactive | IC50 [9]: 0.31 µM | AUC [10]: 744 ng·h/mL | Activity (Chikungunya virus [11]): Active | Cmax [12]: 858 ng/mL | half-life [13]: 18.6 h | Activity (Chikungunya virus [14]): inactive | EC50 (Chikungunya virus [1]): 0.27 µM | EC90 (Onyong-nyong virus): 0.89 µM | AUC [15]: 497 ng·h/mL | CC50 [2]: > 30 µM | bioavailability [16]: 43% | log(activity) [17]: 3.1 | AUC [18]: 7950 ng·h/mL | EC90 (Una virus): 2.5 µM | log(activity) (West Nile virus): 3.4 | Cmax [19]: 90 ng/mL | log(activity) (Chikungunya virus [3]): 4.5 | solubility [20]: < 1 µM | Activity (Chikungunya virus [21]): Active | AUC [22]: 8570 ng·h/mL | Activity (Chikungunya virus [23]): inactive | EC90 (Chikungunya virus [24]): 1.1 µM | log(activity) (dengue virus type 2): 2 | half-life [25]: 9.9 h | EC90 (Chikungunya virus [26]): 0.98 µM | bioavailability [27]: 4% | Cmax [28]: 642 ng/mL | Activity [29]: Non-Toxic | half-life [30]: 132 h | half-life [31]: 2.02 h | EC90 (Chikungunya virus [32]): 1.5 µM | EC90 [33]: 0.85 µM | EC90 [34]: 2.1 µM | bioavailability [35]: 41% | Activity (Chikungunya virus [36]): inactive | CC50 at 24 h [4]: > 30 µM
